Reference: publication PMC6104039 (Nature Communications, 2018)
Several values for one entry are separate records, joined by “and”; a condition that tells them apart may be missing. Identical values can stand only once. Entries after “also recorded” stand apart in the source; their conditions may differ.

Tests used:
gastrocnemius muscle = experiment: Targeted analysis of ceramide, SM and HexCer in gastrocnemius muscle; format: in vivo, mice; parameters: HexCer 18:1/22:0 content of gastrocnemius muscle / SM 34:1 content of gastrocnemius muscle / SM 34:2 content of gastrocnemius muscle / SM 36:2 content of gastrocnemius muscle / SM 36:1 content of gastrocnemius muscle / SM 40:1 content of gastrocnemius muscle / SM 42:2 content of gastrocnemius muscle / SM 42:1 content of gastrocnemius muscle / Cer 18:1/16:0 content of gastrocnemius muscle / Cer 18:1/18:0 content of gastrocnemius muscle / Cer 18:2/18:0 content of gastrocnemius muscle / Cer 18:0/18:0 content of gastrocnemius muscle / Cer 18:1/22:0 content of gastrocnemius muscle / Cer 18:1/24:1 content of gastrocnemius muscle / Cer 18:0/24:1 content of gastrocnemius muscle / Cer 18:1/24:0 content of gastrocnemius muscle / HexCer 18:1/16:0 content of gastrocnemius muscle / HexCer 18:1/18:0 content of gastrocnemius muscle / HexCer 18:1/20:0 content of gastrocnemius muscle: unit not given beside the values; conditions: HFD + P053, individual mice
[1] = molecular target: T1, recombinant human sphingosine kinase 2 (Homo sapiens, UniProt Q9NRA0); experiment: Sphingosine kinase assay with NBD-dihydrosphingosine, TLC; format: biochemical; conditions: 10 μM
T1 construct: purchased R&D Systems
T1 sequence (Q9NRA0 whole entry): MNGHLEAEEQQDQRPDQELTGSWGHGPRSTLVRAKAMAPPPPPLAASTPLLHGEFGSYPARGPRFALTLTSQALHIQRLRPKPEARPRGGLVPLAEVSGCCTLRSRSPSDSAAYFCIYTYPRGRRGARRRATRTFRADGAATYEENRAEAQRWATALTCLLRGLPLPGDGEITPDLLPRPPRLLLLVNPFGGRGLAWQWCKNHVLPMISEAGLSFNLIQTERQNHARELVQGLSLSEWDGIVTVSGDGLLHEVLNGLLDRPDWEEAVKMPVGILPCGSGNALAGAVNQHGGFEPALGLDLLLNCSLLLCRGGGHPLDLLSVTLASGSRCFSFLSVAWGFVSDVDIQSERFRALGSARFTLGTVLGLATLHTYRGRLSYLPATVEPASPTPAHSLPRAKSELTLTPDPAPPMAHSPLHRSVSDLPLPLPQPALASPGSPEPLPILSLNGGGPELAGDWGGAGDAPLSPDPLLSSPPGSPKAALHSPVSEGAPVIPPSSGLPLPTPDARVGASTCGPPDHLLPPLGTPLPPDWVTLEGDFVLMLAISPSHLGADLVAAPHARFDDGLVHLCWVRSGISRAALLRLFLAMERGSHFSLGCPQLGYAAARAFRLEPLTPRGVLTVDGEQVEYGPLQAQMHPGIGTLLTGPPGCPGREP
Method: Sphingosine kinase assays were performed using fluorescent NBD-dihydrosphingosine[63],[64]. […] Reactions were stopped with 100 μL methanol, and 5 μL amounts were resolved on Silica Gel 60 thin layer chromatography (TLC) plates using butanol:acetic acid:water (3:1:1). The fluorescent NBD-dihydrosphingosine 1-phosphate band was quantified using a BioRad ChemiDoc imaging system with excitation by UV light.
Supplementary Figure 2. […] Activity of recombinant
human sphingosine kinases 1 and 2 (SphK1 and 2) was assessed in the presence of 10 µM
Activity is expressed as a percentage of the vehicle control.

[2] = Plasma P053 concentration after oral dosing, LC-MS/MS; format: in vivo, mice
Method: Plasma samples (20 μL) were extracted with 200 μL methanol containing 20 pmoles AAL(S)[27] as the internal standard. The mixtures were vortexed, then sonicated in ice water using a Bioruptor (Diagenode) for 2 min at 30 s intervals. Extracts were centrifuged at 1400 rpm for 20 min, 4 °C, to clear debris. Supernatants were transferred to 5 mL glass tubes. The remaining insoluble material was re-extracted with 1 mL 80% methanol as above, and the supernatant combined with the first extract. The extracts were evaporated under vacuum (Savant SC210 SpeedVac, Thermo Scientific). Dried extracts were reconstituted in 200 μL of 80% methanol/0.2% formic acid and stored at −20 °C. On the day of analysis, the extracts were vortexed thoroughly and centrifuged at 300 × g for 20 min before transferring 100 μL of the supernatant to glass HPLC vials.
LC-MS/MS was performed on a TSQ Quantum Access triple quadrupole mass spectrometer in positive ion mode, coupled to an Accela UPLC system (Thermo Scientific). Extracts (20 μL) were separated on a 2 × 100 mm Eclipse XDB-C8 column with 1.8 μm particle size (Agilent Technologies), using a 7.5 min binary HPLC gradient: 0 min, 70% B ([…]); 1.5 min, 70% B; 3.5 min, 95% B; 4 min, 95% B; 4.5 min, 70% B; 7.5 min 70% B. Mobile phase A: 2 mM ammonium formate/1% formic acid in water; mobile phase B: 1 mM ammonium formate/1% formic acid in methanol. The flow rate was 0.4 mL min^−1, increasing to 0.5 mL min^−1 from 5–7 min, and column oven 30 °C. […] Visualisation and quantification of peaks was performed using Thermo Fisher’s XCalibur software v2.2.

Structure (SMILES): C[C@@](N)(CO)CCc1ccc(OCc2ccc(Cl)c(Cl)c2)cc1 [P053, (S)-2-amino-4-(4-(3,4-dichlorobenzyloxy)phenyl)-2-methylbutan-1-ol]
- Cer 18:0/24:1 content of gastrocnemius muscle (gastrocnemius muscle): 4.519 and 1.914 and 1.715 and 1.673 and 2.381 and 12.1481 and 1.438 and 1.998 and 3.6 and 0.9202
- Cer 18:1/16:0 content of gastrocnemius muscle (gastrocnemius muscle): 0.2953 and 0.2425 and 0.247 and 0.3667 and 0.6053 and 1.286 and 0.3154 and 0.1867 and 0.2439 and 0.2642
- Cer 18:1/18:0 content of gastrocnemius muscle (gastrocnemius muscle): 21.9657 and 17.6562 and 21.0561 and 17.8475 and 19.1897 and 17.6974 and 13.2972 and 14.5082 and 22.6242 and 9.617
- Cer 18:1/20:0 content of gastrocnemius muscle (gastrocnemius muscle): 1.3 and 0.9773 and 1.039 and 0.7088 and 1.3618 and 1.151 and 0.5199 and 0.8084 and 1.045 and 0.6734
- Cer 18:1/22:0 content of gastrocnemius muscle (gastrocnemius muscle): 6.663 and 2.886 and 2.627 and 3.138 and 3.9433 and 5.15 and 2.442 and 3.877 and 4.12 and 2.291
- Cer 18:1/24:0 content of gastrocnemius muscle (gastrocnemius muscle): 8.75 and 4.723 and 4.013 and 4.317 and 4.82 and 10.8999 and 3.077 and 4.318 and 7.266 and 2.309
- Cer 18:1/24:1 content of gastrocnemius muscle (gastrocnemius muscle): 11.3105 and 7.675 and 5.851 and 7.272 and 9.129 and 11.5338 and 5.462 and 9.029 and 11.0555 and 5.753
- Cer 18:2/18:0 content of gastrocnemius muscle (gastrocnemius muscle): 0.4484 and 0.4926 and 0.3634 and 0.4132 and 0.2765 and 0.3608 and 0.2849 and 0.2673 and 0.3042 and 0.2757
- HexCer 18:1/16:0 content of gastrocnemius muscle (gastrocnemius muscle): 0.07083 and 0.2298 and 0.1257 and 0.1094 and 0.2809 and 0.09552 and 0.04859 and 0.09042 and 0.2927 and 0.128
- HexCer 18:1/18:0 content of gastrocnemius muscle (gastrocnemius muscle): 0.6278 and 2.316 and 1.725 and 1.053 and 1.514 and 0.3784 and 1.339 and 1.2334 and 3.411 and 0.7622
- HexCer 18:1/20:0 content of gastrocnemius muscle (gastrocnemius muscle): 1.025 and 3.657 and 4.193 and 2.559 and 2.728 and 0.775 and 2.303 and 1.6216 and 6.493 and 1.535
- HexCer 18:1/22:0 content of gastrocnemius muscle (gastrocnemius muscle): 7.522 and 16.4106 and 20.0443 and 14.4231 and 12.9484 and 5.248 and 12.5609 and 13.236 and 35.9679 and 8.484
- HexCer 18:1/22:1 content of gastrocnemius muscle (gastrocnemius muscle): 0.5466 and 1.486 and 1.3 and 1.291 and 1.104 and 0.193 and 0.8615 and 0.6275 and 2.662 and 0.7906
- HexCer 18:1/24:0 content of gastrocnemius muscle (gastrocnemius muscle): 35.0734 and 65.2406 and 70.8422 and 52.1762 and 47.7217 and 19.7676 and 40.4927 and 43.8786 and 131.229 and 26.1187
- HexCer 18:1/24:1 content of gastrocnemius muscle (gastrocnemius muscle): 11.8966 and 34.458 and 33.6892 and 26.2534 and 24.7881 and 7.796 and 20.5958 and 23.2933 and 61.9739 and 13.7499
- SM 34:1 content of gastrocnemius muscle (gastrocnemius muscle): 32.5351 and 75.4148 and 64.2595 and 68.4699 and 74.2315 and 69.3058 and 56.8022 and 63.1231 and 40.9981 and 91.0819
- SM 34:2 content of gastrocnemius muscle (gastrocnemius muscle): 1.53 and 2.835 and 1.998 and 2 and 2.418 and 2.144 and 2.133 and 2.338 and 2.209 and 2.34
- SM 36:1 content of gastrocnemius muscle (gastrocnemius muscle): 125.344 and 223.512 and 246.64 and 236.8 and 200.399 and 135.056 and 273.936 and 199.397 and 141.624 and 291.891
- SM 36:2 content of gastrocnemius muscle (gastrocnemius muscle): 1.77 and 3.547 and 2.905 and 2.734 and 5.421 and 3.741 and 3.767 and 2.494 and 1.973 and 4.895
- SM 40:1 content of gastrocnemius muscle (gastrocnemius muscle): 74.9293 and 89.7182 and 104.131 and 44.9676 and 58.8143 and 74.268 and 90.7758 and 60.0553 and 174.22 and 68.0463
- SM 42:1 content of gastrocnemius muscle (gastrocnemius muscle): 42.7745 and 43.392 and 45.2063 and 34.368 and 60.6982 and 34.7124 and 28.1104 and 34.3376 and 109.833 and 16.1089
- SM 42:2 content of gastrocnemius muscle (gastrocnemius muscle): 124.791 and 220.201 and 175.989 and 144.772 and 171.488 and 135.796 and 111.009 and 132.926 and 406.752 and 102.287
- inhibition of sphingosine kinase 2 [1]: did not inhibit; also recorded: does not inhibit; also recorded: no inhibitory activity
- concentration at 6 weeks ([2]; C57BL6/J, mouse, plasma, oral, 5 mg/kg/day for 6 weeks): ~300 nM
- half-life ([2]; C57BL6/J, mouse, plasma, single 5 mg/kg dose by oral gavage): 1680 min
- Tmax ([2]; C57BL6/J, mouse, plasma, single 5 mg/kg dose by oral gavage, read-out: time of maximal plasma concentration): 4 h
- maximal plasma concentration ([2]; single 5 mg/kg dose by oral gavage): 20 nM
